In ChEMBL document CHEMBL2074566, “Azithromycin reverses anticancer drug resistance and modifies hepatobiliary excretion of doxorubicin in rats” (Eur J Pharmacol, 2004):

Biological target: ATP-dependent translocase ABCB1 (Homo sapiens, UniProt P08183)
Assay: TP_TRANSPORTER: cell accumulation of doxorubicin in the presence of Azithromycin at a concentration of 0.3uM and 1mM in K562/ADR cells
Type: functional, cell-based

ATP-dependent translocase ABCB1, sequence (P08183 whole entry): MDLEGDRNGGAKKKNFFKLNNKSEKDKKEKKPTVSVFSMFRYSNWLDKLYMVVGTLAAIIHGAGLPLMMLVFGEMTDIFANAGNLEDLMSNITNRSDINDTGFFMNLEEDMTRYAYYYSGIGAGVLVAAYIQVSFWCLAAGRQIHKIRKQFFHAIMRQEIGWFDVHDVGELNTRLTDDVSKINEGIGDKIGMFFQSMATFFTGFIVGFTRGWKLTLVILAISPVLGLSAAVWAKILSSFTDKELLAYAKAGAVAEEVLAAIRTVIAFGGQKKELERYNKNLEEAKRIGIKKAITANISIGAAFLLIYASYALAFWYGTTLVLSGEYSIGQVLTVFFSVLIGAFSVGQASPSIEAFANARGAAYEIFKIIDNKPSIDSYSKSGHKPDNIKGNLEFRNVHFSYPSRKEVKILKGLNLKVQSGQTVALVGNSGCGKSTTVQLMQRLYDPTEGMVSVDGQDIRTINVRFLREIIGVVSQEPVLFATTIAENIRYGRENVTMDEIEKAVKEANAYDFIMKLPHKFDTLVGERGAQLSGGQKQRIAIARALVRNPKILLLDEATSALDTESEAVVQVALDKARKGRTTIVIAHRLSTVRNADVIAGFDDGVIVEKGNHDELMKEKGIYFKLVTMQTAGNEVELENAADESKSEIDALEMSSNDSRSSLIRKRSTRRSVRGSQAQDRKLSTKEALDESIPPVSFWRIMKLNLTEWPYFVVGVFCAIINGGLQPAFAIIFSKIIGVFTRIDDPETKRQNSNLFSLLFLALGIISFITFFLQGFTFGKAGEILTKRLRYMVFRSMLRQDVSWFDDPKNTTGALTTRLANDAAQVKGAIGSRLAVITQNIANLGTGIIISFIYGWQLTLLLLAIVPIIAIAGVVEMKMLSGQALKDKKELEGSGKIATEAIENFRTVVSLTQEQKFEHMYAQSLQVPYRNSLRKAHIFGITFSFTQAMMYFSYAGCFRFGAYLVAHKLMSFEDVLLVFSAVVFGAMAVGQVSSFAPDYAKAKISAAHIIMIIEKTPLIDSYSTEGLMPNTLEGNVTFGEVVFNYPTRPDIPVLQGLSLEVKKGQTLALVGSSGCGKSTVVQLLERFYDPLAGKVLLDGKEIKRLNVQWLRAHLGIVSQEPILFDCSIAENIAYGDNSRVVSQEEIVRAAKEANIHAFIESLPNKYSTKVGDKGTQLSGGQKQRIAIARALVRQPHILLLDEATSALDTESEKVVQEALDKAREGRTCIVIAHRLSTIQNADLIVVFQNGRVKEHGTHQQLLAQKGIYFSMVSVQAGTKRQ

With `CC[C@H]1OC(=O)[C@H](C)[C@@H](O[C@H]2C[C@@](C)(OC)[C@@H](O)[C@H](C)O2)[C@H](C)[C@@H](O[C@@H]2O[C@H](C)C[C@H](N(C)C)[C@H]2O)[C@](C)(O)C[C@@H](C)CN(C)[C@H](C)[C@@H](O)[C@]1(C)O` [AZITHROMYCIN] the Activity was “inhibitor [+]”.
